Reference: patent US9097667B2, “Fluorescent compounds” (BIOTIUM, INC., priority 2007, dated 2015)

Assay: Absorption and emission spectra of the dyes (λabs/λem in H2O)
Format: physicochemical
Settings: Table 5, coumarin-based fluorescent groups
Excerpt: For compounds of Formula II, it is well known to a person of skill in the art to select the bridging unit Y, in combination with a specific embodiment of a moiety of Formula F, in combination with a specific embodiment of moiety Y, and in combination with specific substituents such that the maximal fluorescence excitation wavelength of the compound ranges from about 350 to about 1200 nm. Standard analysis well known in the art is used to obtain the absorption and emission spectra of the dyes in order to ascertain the absorption maximal wavelength and the maximal fluorescence emission wavelength. Any combinations of the above described groups may be used to form a compound of the invention with a maximal fluorescence excitation wavelength of about 550 nm, about 560 nm, about 570 nm, about 580 nm, about 590 nm, about 600 nm, about 610 nm, about 620 nm, about 615 nm, about 620 nm, about 625 nm, about 630 nm, about 635 nm, about 640 nm, about 650 nm, about 655 nm, about 660 nm, about 665 nm, about 670 nm, about 675 nm, about 680 nm, about 685 nm, about 690 nm, about 695 nm, about 700 nm, about 705 nm, about 710 nm, about 715 nm, about 720 nm, about 725 nm, about 730 nm, about 735 nm, about 740 nm, about 745 nm, about 750 nm, about 755 nm, about 760 nm, about 765 nm, about 770 nm, about 775 nm, about 780 nm, about 790 nm, about 800 nm, about 810 nm, about 820 nm, about 830 nm, about 840 nm, about 850 nm, about 860 nm, about 870 nm, about 880 nm, about 890 nm, about 900 nm, about 910 nm, about 920 nm, about 930 nm, about 940 nm, about 950 nm, about 960 nm, about 970 nm, about 980 nm, about 990 nm, about 1000 nm, about 1020 nm, about 1040 nm, about 1060 nm, about 1080 nm, about 1100 nm, about 1120 nm, about 1140 nm, about 1160 nm, about 1180 nm, or about 1200 nm. The moieties described above may be used in any combination. The maximal fluorescence excitation wavelength of the dye is typically the wavelength at which the dye has a maximal absorption or maximal optical density, which excites the dye to fluoresce. In some embodiments, the compound of Formula II has an absorption maximal wavelength at >670 nm. In one embodiment, the absorption maximal wavelength is at >700 nm. According to another embodiment, the absorption maximal wavelength is at >800 nm.
In the case of `COCCOCCOCCOCCOCCOCCOCCOCCOCCOCCOCCOCCN(CCCCCC(=O)ON1C(=O)CCC1=O)C(=O)Cc1c(C)c2cc(S(=O)(=O)O)c(N)cc2oc1=O` [Compound No. 51], the λabs is reported as 346 nm and the λcm is reported as 442 nm. Work on `C=C(Cc1c(C)c2ccc(N)cc2oc1=O)N(CCCCCC(=O)ON1C(=O)CCC1=O)CCOCCOCCOCCOCCOCCOCCOCCOCCOCCOCCOCCOC` [compound 50] yielded a λabs of 353 nm and a λcm of 442 nm. With `COCCOCCOCCOCCOCCOCCOCCOCCOCCOCCOCCOCCOCCOCCOCCOCCOCCOCCOCCOCCOCCOCCOCCOCCN(CCCCCC(=O)ON1C(=O)CCC1=O)C(=O)CCCCCN1c2cc3oc(=O)cc(C(F)(F)F)c3cc2C(CS(=O)(=O)O)=CC1(C)C` [compound 53] the λabs was 430 nm and the λcm was 545 nm. Compound `COCCOCCOCCOCCOCCOCCOCCOCCOCCOCCOCCOCCN(CCCCCC(=O)ON1C(=O)CCC1=O)C(=O)c1cc2cc(F)c(O)c(F)c2oc1=O` [Compound No. 52] has a λabs of 416 nm and a λcm of 465 nm.

Assay: Total fluorescence vs. degree of labeling (DOL) of protein dye-conjugates
Format: physicochemical
Settings: goat anti-mouse IgG conjugates, excited at 350 nm, compared to AMCA; FIG. 7
Procedure: Fluorescent conjugates of goat anti-mouse IgG (GAM), goat anti-rabbit IgG (GAR), and streptavidin were prepared from the respective proteins and a reactive dye, following published procedures (U.S. Pat. No. 6,974,873; Haugland et al., Meth. Mol. Biol. 45, 205 (1995); Haugland et al., Meth. Mol. Biol. 45, 223 (1995); Haugland et al., Meth. Mol. Biol. 45, 235 (1995); Haugland et al., Current Protocols in Cell Biology, 16.5.1-16.5.22 (2000)). Briefly, an antibody or streptavidin at 1 mg/mL in […] pH 8.5 sodium bicarbonate buffer was mixed with one of the reactive dye at various ratio of dye molecules/protein molecule. After incubating for about an hour at room temperature, the reaction mixture was separated by gel filtration using Sephadex G-25 equilibrated with PBS (pH 7.4). The various dye molecules/protein ratios used in the labeling reactions produced protein conjugates with different degree of dye labeling (DOL) as listed in Table 7 below for each dye/protein pair.
The fluorescence of the conjugates was measured using a JACSO fluorescence spectrophotometer and was then plotted against the DOL to give FIGS. 4-7.
A set of goat anti-mouse IgG conjugates were prepared by labeling a portion of goat anti-mouse IgG with one of three near IR dyes. […]
In the case of `COCCOCCOCCOCCOCCOCCOCCOCCOCCOCCOCCN(CCCCCC(=O)ON1C(=O)CCC1=O)C(=O)Cc1c(C)c2ccc(N)cc2oc1=O` [Compound No. 92], the “total fluorescence vs. degree of labeling (DOL)” value is reported as “higher fluorescence quantum yield over a wide of degree of labeling and has less fluorescence quenching when the antibody is at higher degrees of labeling”.
